Experimental data published in PMC12446542, “Neddylation inhibitor MLN4924 enhances H3K18 lactylation via binding to LDH and downregulates ITGB4 to block metastasis” (The Journal of Biological Chemistry, 2025).

Molecular target: T1, LDHA (Homo sapiens, UniProt P00338)
T1 construct: purified recombinant LDHA protein (CUSABIO, CSB-EP012832HU)
Assay: SPR (Biacore 8K, LDHA immobilized on CM5 chip, steady-state analysis); supported by CETSA in SK-BR-3 cells
Assay type: binding
Description: SPR (Biacore 8K, LDHA immobilized on CM5 chip, steady-state analysis); supported by CETSA in SK-BR-3 cells on LDHA | using purified recombinant LDHA protein and MLN4924.

NS(=O)(=O)OC[C@@H]1C[C@@H](n2ccc3c(N[C@H]4CCc5ccccc54)ncnc32)C[C@@H]1O [MLN4924] showed a Kd of 35.5 µM.
